Patent US11104657B2, “Notch inhibitors for use in the treatment of t-cell acute lymphoblastic leukemia” (UNIVERSITÀ DEGLI STUDI DI ROMA “LA SAPIENZA”, priority 2016, dated 2021)
Where two headings read alike, the source gives them in different places.

Legend:
HaCaT keratinocytes = assay: MTS cell proliferation assay, HaCaT keratinocytes; assay type: cell-based; conditions: Homo sapiens; immortalized non-tumor HaCaT keratinocytes
Protocol: (§1) The cell lines DND41 (ACC 525, DSMZ, Braunschweig, GERMANY), KOPTK1 (RRID: CVCL_4965) were maintained in culture in RPMI-1640 (Gibco, Carlsbad, Calif., USA) with 10% fetal bovine serum. TALL-1 cells (ACC-521: DSMZ, Braunschweig, GERMANY) were cultured in RPMI-1640 (Gibco, Carlsbad, Calif., USA) supplemented with 20% fetal bovine serum, while HaCaT cells (ACC-771: DSMZ, Braunschweig, GERMANY) were maintained in Eagle's culture medium according to Dulbecco (Gibco, Carlsbad, Calif., USA) containing 10% fetal bovine serum. Cells were treated with the naturally-occurring compounds A-H or with compounds 1-17 for times and concentrations indicated in the text. […]
(§2) All treatments were carried out in triplicate, including control treatments. […] To quantify vitality, cells were assayed by the MTS CellTiter 96® AQueous One Solution Cell Proliferation Assay (G3580; Promega, Madison, Wis., USA). Absorbance was detected at 490 nm using the GloMax Multidetection System instrument (Promega, Madison, Wis., USA). Data were collected in the form of absorbance units (ABSs) and standardized to obtain the proliferation rate (MTS) through the equation: % cell proliferation=(ABScell culture+compound−ABSculture medium+compound/(ABScell culture+DMSO−ABSculture medium+DMSO)×100. […]

TALL-1 cells = assay: MTS cell proliferation assay, TALL-1; assay type: cell-based; conditions: Homo sapiens
Protocol: as §1, §2

DND41 cells = assay: MTS cell proliferation assay (IG50), DND41; assay type: cell-based, human; conditions: for IC50: Homo sapiens
Protocol: In order to evaluate the biological implications of the compounds, their effect on cell proliferation/vitality was tested by determining the relative concentrations of growth inhibition (IG50) by means of the MTS cellular assay.
The cell lines DND41 (ACC 525, DSMZ, Braunschweig, GERMANY), KOPTK1 (RRID: CVCL_4965) were maintained in culture in RPMI-1640 (Gibco, Carlsbad, Calif., USA) with 10% fetal bovine serum. TALL-1 cells (ACC-521: DSMZ, Braunschweig, GERMANY) were cultured in RPMI-1640 (Gibco, Carlsbad, Calif., USA) supplemented with 20% fetal bovine serum, while HaCaT cells (ACC-771: DSMZ, Braunschweig, GERMANY) were maintained in Eagle's culture medium according to Dulbecco (Gibco, Carlsbad, Calif., USA) containing 10% fetal bovine serum. Cells were treated with the naturally-occurring compounds A-H or with compounds 1-17 for times and concentrations indicated in the text.
Cells were seeded in 96-well plates with a density of 5×10^5 cells/ml (5×10^4 cells per well) and treated for the times and the concentrations of the various compounds, as indicated in the text.
All treatments were carried out in triplicate, including control treatments. All treatment reactions contained a final concentration of 1% DMSO (D5879; Sigma-Aldrich, St Louis, Mo., USA). To quantify vitality, cells were assayed by the MTS CellTiter 96® AQueous One Solution Cell Proliferation Assay (G3580; Promega, Madison, Wis., USA). Absorbance was detected at 490 nm using the GloMax Multidetection System instrument (Promega, Madison, Wis., USA). Data were collected in the form of absorbance units (ABSs) and standardized to obtain the proliferation rate (MTS) through the equation: % cell proliferation=(ABScell culture+compound−ABSculture medium+compound/(ABScell culture+DMSO−ABSculture medium+DMSO)×100.
The 50% inhibition concentration was calculated using the GraphPad Prism software program (GraphPad Software Inc., La Jolla, Calif., USA).

[1] = system: activated domain of Notch1 in HaCaT cells; assay: Western blot of N1VAL expression in HaCaT cells; assay type: cell-based; conditions: 36 hours
Protocol: Laemmli Sample Buffer (161-0737; Bio-Rad Laboratories Inc., Hercules, Calif., USA) was added to each cell pellet. Cells were lysed by ultrasonic sonication and to each mixture 5% 2-mercaptoethanol (161-0710; Bio-Rad Laboratories Inc., Hercules, Calif., USA) was added. Samples were denatured at 100° C. for 5 min and protein mixtures were separated by means of Sodium Dodecyl Sulphate-Polyacrylamide Gel Electrophoresis using 8% acrylamide and transferred onto nitrocellulose membranes. After transfer, the membranes pre-saturated in 5% Blot Dry Fat Milk (1706404; Bio-Rad Laboratories Inc., Hercules, Calif., USA) were incubated for 16 hours at +4° C. with the following primary antibodies diluted at 1:1000 in 5% Dry Fat Milk (1706404; Bio-Rad Laboratories Inc., Hercules, Calif., USA): Notch1Val1744 (2421; Cell Signaling Technology, Beverly, Mass., USA), Notch3 (2889; Cell Signaling Technology, Beverly, Mass., USA) and β-actin (sc-47778; Santa Cruz Biotechnology, Santa Cruz, Calif., USA). Subsequently, filters were incubated for 1 hour at room temperature with the following secondary antibodies: anti-rabbit (sc-2004, Santa Cruz Biotechnology, Santa Cruz, Calif., USA) or anti-mouse (sc-2005, Santa Cruz Biotechnology, Santa Cruz, Calif., USA). […]

KOPTK1 cells = assay: MTS cell proliferation assay, KOPTK1; assay type: cell-based; conditions: Homo sapiens
Protocol: as §1, §2

[2] = system: Notch signaling (N1VAL, N3ICD) in DND41 cells; assay: Western blot of N1VAL and N3ICD expression in DND41 cells; assay type: cell-based, human; conditions: DND41 cells, 36 hours, 0-50 μM, Western blot
Protocol: In order to identify new naturally-occurring molecular agents able to modulate Notch signaling, the effects on protein expression of the activated domain of Notch1 (N1VAL), and of the intracellular domain of Notch3 (N3ICD), were evaluated in DND41 cells through
Western blotting assays, following treatment for 36 hours with increasing concentrations (0, 1, 5, 10, 20, 50 μM) of the eight molecules (A-H) previously selected. Functional biochemical screening was performed on T-ALL DND41 cells because they are notoriously sensitive to the block of Notch signaling, and characterized by the constitutive and ligand-independent activation of the Notch1 pathway and by the high expression of Notch3. This makes this cell line a useful experimental model for screening putative Notch inhibitors.
In order to investigate the activity and selectivity of action of the 12 synthetic derivatives of butein, and following the screening scheme described in the first design phase, the efficacy of these molecules was analyzed by verifying the effects of 36 hours of treatment at increasing doses on the activation of Notch signaling and on the proliferation in DND41 cells.
Laemmli Sample Buffer (161-0737; Bio-Rad Laboratories Inc., Hercules, Calif., USA) was added to each cell pellet. Cells were lysed by ultrasonic sonication and to each mixture 5% 2-mercaptoethanol (161-0710; Bio-Rad Laboratories Inc., Hercules, Calif., USA) was added. Samples were denatured at 100° C. for 5 min and protein mixtures were separated by means of Sodium Dodecyl Sulphate-Polyacrylamide Gel Electrophoresis using 8% acrylamide and transferred onto nitrocellulose membranes. After transfer, the membranes pre-saturated in 5% Blot Dry Fat Milk (1706404; Bio-Rad Laboratories Inc., Hercules, Calif., USA) were incubated for 16 hours at +4° C. with the following primary antibodies diluted at 1:1000 in 5% Dry Fat Milk (1706404; Bio-Rad Laboratories Inc., Hercules, Calif., USA): Notch1Val1744 (2421; Cell Signaling Technology, Beverly, Mass., USA), Notch3 (2889; Cell Signaling Technology, Beverly, Mass., USA) and β-actin (sc-47778; Santa Cruz Biotechnology, Santa Cruz, Calif., USA). Subsequently, filters were incubated for 1 hour at room temperature with the following secondary antibodies: anti-rabbit (sc-2004, Santa Cruz Biotechnology, Santa Cruz, Calif., USA) or anti-mouse (sc-2005, Santa Cruz Biotechnology, Santa Cruz, Calif., USA). Chemiluminescence signal detection was performed using the ECL Advanced Detection System substrate (RPN2135; E Healthcare UK Limited, Buckinghamshire, UK).

Row | Compound | IC50 (HaCaT keratinocytes) [nM] | IC50 (TALL-1 cells) [nM] | IC50 (DND41 cells; 36-hour treatments in DND41 cells, mean of triplicate experiments ± S.D., Table 2, read-out: IG50 ± S.D.) [nM] | IC50 (DND41 cells; DND41 cells, MTS assay, 36 hours of treatment, read-out: IG50 (growth inhibition)) [nM] | concentration from which expression of the activated domain of Notch1 is significantly reduced [1] [µM] | IC50 (KOPTK1 cells) [nM] | effect on cell proliferation (DND41 cells; DND41 cells, doses of up to 50 μM) | IC50 (DND41 cells; DND41, 36 h, read-out: IG50 S.D.) [nM] | effect on the expression of N1VAL [2]
1 | COc1ccc(C(=O)/C=C/c2ccc(O)cc2)c(O)c1 [Compound 8, 2′,4-dihydroxy-4′-methoxychalcone] | 48600 ± 8060 | 290 ± 20 | 1920 ± 1040 | 1920 | ≥ 2.5 | 910 ± 60 | – | – | –
2 | CC(=O)C1=C(O)[C@]2(C)C(=CC1=O)Oc1c(C(C)=O)c(O)c(C)c(O)c12 [Compound G, 2,6-diacetyl-7,9-dihydroxy-8,9b-dimethyldibenzofuran-1,3-dione, reference compound] | – | – | – | – | – | – | do not significantly affect cell proliferation | > 50000 | did not significantly modulate
